Measured values: US11845992B2, “Compositions and methods for predicting response and resistance to CDK4/6 inhibition” (DANA-FARBER CANCER INSTITUTE, INC., priority 2017, dated 2023)
Entries after “also recorded” stand apart in the source; their conditions may differ. Read-outs that look alike come from different tables or passages of the source.

Columns and labels:
[1] = system: GFP-positive parental T47D cells; assay: GFP co-culture resistance transmission assay; conditions: 72 hours co-culture, exosome production inhibited
Procedure: FIG. 11A is a bar graph, wherein cells were treated with either DMSO, 10 μM GW4869 or 10 μM manumycin A for 72 hours prior to exosome harvest and quantification. […] Subsequently, cells were harvested and analyzed by flow cytometry for GFP expression and cell cycle profile.

[2] = system: T47D cells; assay: Flow cytometry cell cycle analysis; format: cell-based
[3] = system: T47D cells; assay: Growth inhibition assay, 5 days, normalized to DMSO; format: cell-based; conditions: for change of GI50 by CDK6 overexpression: CDK6 overexpressing vs parental T47D; for change of GI50 by miR-432 overexpression: parental T47D overexpressing miR-432 (FIG. 10A)
Procedure: (§1) Subsequently, cell growth was quantified and normalized to DMSO treated control.
Subsequently, cell growth was quantified and normalized to DMSO treated control. BLISS Synergy/antagonism score was modelled using Combenefit software. FIG. 12C is a graph, wherein T47D parental and resistant cells were treated with escalating dose of galunisertib for 5 days. Subsequently, cell growth was quantified and normalized to DMSO treated control.

[4] = system: estrogen receptor positive (ER+) and HER2 negative breast cancer; conditions: patients; previous results; cited from earlier work
[5] = system: T47D cells; assay: cells; format: cell-based; conditions: for CC50: Homo sapiens, T47D
Procedure: Cells were incubated for 14 to 21 days to allow colony formation. Colonies were fixed and permeabilised using Carnoy's fixative (75% methanol, 25% Acetic acid) and stained with 1% crystal violet and counted.
Cells stably expressing shRNA, miRNA or cDNA were generated using lentiviral transfection, as previously described using the pLKO.1 or pLEX-307 backbone (Moffat, J. et al., Cell 124: 1283-1298 (2006)). Multiple stable cell lines were generated for each protein knockdown; shRNA sequences were obtained from the RNAi Consortium database (Moffat, J. et al., Cell 124: 1283-1298 (2006)). CDK6 GeneArt cDNA sequences (K43M (Hu, M. G. et al., Blood 117: 6120-6131 (2011)), S178P (Bockstaele, L. et al., Mol. Cell Biol. 29: 4188-4200 (2009)) and R31C (Hu, M. G. et al., Blood 117: 6120-6131 (2011)) were purchased from ThermoFisher and cloned into the pLEX-307 backbone. For miRNA overexpression, ˜500 bp of DNA encompassing each miRNA sequence was PCR purified and cloned into the pLEX-307 backbone, miRNA mimics were purchased and transfected into cells as a positive control for miRNA detection. Protein expression/miRNA expression/knockdown was confirmed after 5 days of selection in puromycin (1 μg/ml for both T47D and MCF7).
CDK6 by CRIPSR/Cas9 was performed as previously described (Sanjana, N. E. et al., Nat. Meth 11: 783-784 (2014)). The following sgRNA sequence was cloned into the LentiCRIPSR v2 vector-sgCDK6-7 (targeting the 5′UTR): […] (SEQ ID NO: 2). Cells were selected using 1 μg/ml puromycin and protein knockout confirmed after ˜12 days.

[6] = system: T47D cells; assay: Annexin V apoptosis assay; conditions: 48 hours
[7] = system: CDK6 protein in T47D cells; assay: Western blot of CDK6 protein expression; format: cell-based; conditions: palbociclib exposure up to 6 days
Procedure: Cells were lysed with RIPA buffer (10 mM Tris, pH 7.5, 1% Nonidet-P40, 2 mM Na2EDTA, 150 mM NaCl) plus protease inhibitors (Calbiochem) and protein estimation was performed by Pierce assay. Gel electrophoresis was performed with Bis-Tris 4-12% (v/v) polyacrylamide gradient gels (ThermoFisher). Samples were transferred onto Immobilin-P PVDF membrane (EMD Millipore), and probed with primary antibodies against either CDK1, CDK2, CDK4, CDK6, Cyclin D1, Cyclin D3, Cyclin E, p2′7, SMAD3, SMAD4, TGFβ, TGFβR3 (Santa Cruz), pRB (Cell signaling) or actin (Genescript). Goat anti-rabbit or goat anti-mouse HRP-linked secondary antibodies (1:1000; Dako) and ECL reagent (Perkin Elmer) were used for protein detection. Cytokines were analyzed using the Human Cytokine Array Kit performed per manufactures instructions (R&D Systems).

[8] = system: MCF7 cells; assay: Growth inhibition assay, 5 days, normalized to DMSO; format: cell-based; conditions: for change of GI50 by CDK6 overexpression: CDK6 overexpressing vs parental MCF7 (printed MCG-7); for change of GI50 by miR-432 overexpression: parental MCF7 overexpressing miR-432 (FIG. 10B)
Source text: as §1

[9] = system: palbociclib resistant MCF7 xenografts; assay: Palbociclib resistant MCF7 xenograft with treatment holiday; format: in vivo, mice; conditions: 100 mg/kg/day oral gavage, after 28 days treatment holiday
Procedure: Female nude mice (NCr-Foxn1^NU, Tactonic Laboratories) were maintained and handled in isolators under specific pathogen-free conditions for tissue distribution and efficacy studies in accordance with local guidelines and therapeutic interventions approved by the Animal Care and Use Committee of Dana-Farber Cancer Institute. Mice were implanted with 17β-estradiol pellets (0.36 mg, 90-day release, Innovative Research of America) prior to cell implantation. […] Tumors were measured throughout the experiment and relative tumor volume calculated.

[10] = system: parotid cancer harboring CDKN2A/B loss; conditions: one patient; cited from earlier work

Compound: O=C(/C=C/c1ccc(/C=C/C(=O)Nc2ccc(C3=NCCN3)cc2)cc1)Nc1ccc(C2=NCCN2)cc1 [GW4869]
- G1 population of GFP-positive parental cells co-cultured with resistant cells [1]: significant increase

Compound: Cc1cccc(-c2nn3c(c2-c2ccnc4ccc(C(N)=O)cc24)CCC3)n1 [galunisertib]
- effect on palbociclib G1 arrest ([2]; in combination with palbociclib, T47D, 24 hours): prevent G1 arrest
- interaction with palbociclib (BLISS synergy/antagonism) ([3]; combined with palbociclib, parental and resistant T47D cells): significantly antagonistic
- effect on growth when used alone ([3]; parental or resistant T47D cells, 5 days): no effect

Compound: N#Cc1ccc(C(c2ccc(C#N)cc2)n2cncn2)cc1 [letrozole]
- progression free survival [4]: 14.5 months

Compound: CCCC[C@@H](C)/C=C(C)/C=C(\C)C(=O)NC1=C[C@@](O)(/C=C/C=C/C=C/C(=O)NC2=C(O)CCC2=O)[C@@H]2O[C@@H]2C1=O [manumycin A]
- G1 population of GFP-positive parental cells co-cultured with resistant cells [1]: significant increase

Compound: CC(=O)c1c(C)c2cnc(Nc3ccc(N4CCNCC4)cn3)nc2n(C2CCCC2)c1=O [palbociclib]
- CC50 ([5]; read-out: LC50, survival after palbociclib treatment, CDK6 knockout T47D cells (sgK6-7)): 34.2 nM
- CC50 ([5]; read-out: LC50, survival after palbociclib treatment, INK4-insensitive CDK6 (R31C) T47D cells): 632 nM
- CC50 ([5]; read-out: LC50, survival after palbociclib treatment, constitutively active CDK6 (S178P) T47D cells): 269 nM
- CC50 ([5]; read-out: LC50, survival after palbociclib treatment, control T47D cells (sgNT)): 66.2 nM
- CC50 ([5]; read-out: LC50, survival after palbociclib treatment, kinase dead CDK6-expressing T47D cells (K43M)): 26.6 nM
- CC50 ([5]; read-out: LC50, survival after palbociclib treatment, wild-type CDK6 (WT) T47D cells): 229 nM
- survival after palbociclib treatment compared to non-target shRNA control ([5]; shRNA-mediated CDK6-depleted T47D cells): significantly lower survival
- apoptosis ([6]; CDK6 knockdown and knockout T47D cells): marked increase
- effect on apoptotic fraction ([6]; shNT-expressing T47D cells): no effect
- sub-G1 DNA content compared to control cells ([2]; CDK6-depleted T47D cells, 100 nM, 24 hours): significantly more
- cells in the G1 phase of the cell cycle ([2]; T47D, 100 nM, initial exposure (week 0)): more than 90%
- cell cycle effect in parental cells ([2]; parental T47D, 100 nM or 300 nM, persisted for 14 days): sustained G1 arrest
- cell cycle arrest on re-challenge ([2]; resistant cells after 6 weeks in drug-free media, 100 nM for 24 hours): indistinguishable from parental cells
- change of GI50 by CDK6 overexpression [3]: significantly increased
- change of GI50 by miR-432 overexpression [3]: significantly increased
- effect on CDK6 expression [7]: no observable effect
- change of GI50 by CDK6 overexpression [8]: significantly increased
- change of GI50 by miR-432 overexpression [8]: significantly increased
- tumor burden after re-introduction of treatment [9]: substantial regression of all but 1 tumor; also recorded: marked decrease

Compound: CN(C)C(=O)c1cc2cnc(Nc3ccc(N4CCNCC4)cn3)nc2n1C1CCCC1 [ribociclib]
- change of GI50 by CDK6 overexpression [3]: significantly increased
- cross-resistance of palbociclib resistant cells ([3]; palbociclib resistant (100 nM) T47D vs parental): significantly more resistant
- change of GI50 by miR-432 overexpression [3]: significantly increased
- change of GI50 by CDK6 overexpression [8]: significantly increased
- cross-resistance of palbociclib resistant cells ([8]; palbociclib resistant (100 nM) MCF7 vs parental): significantly more resistant
- change of GI50 by miR-432 overexpression [8]: significantly increased
- clinical response [10]: partial response
